From ChEMBL document CHEMBL1134750, “Structure-activity relationship on the human EP3 prostanoid receptor by use of solid-support chemistry” (Bioorg Med Chem Lett, 2001)
One block for each compound: values may come before it.

Tests used:
[1] = target: T1, Prostaglandin E2 receptor EP3 subtype (Homo sapiens) (UniProt P43115); assay: Residual binding of radiolabeled PGE-2 on the Prostanoid EP3 receptor at a concentration of 1 uM
T1 sequence (whole entry): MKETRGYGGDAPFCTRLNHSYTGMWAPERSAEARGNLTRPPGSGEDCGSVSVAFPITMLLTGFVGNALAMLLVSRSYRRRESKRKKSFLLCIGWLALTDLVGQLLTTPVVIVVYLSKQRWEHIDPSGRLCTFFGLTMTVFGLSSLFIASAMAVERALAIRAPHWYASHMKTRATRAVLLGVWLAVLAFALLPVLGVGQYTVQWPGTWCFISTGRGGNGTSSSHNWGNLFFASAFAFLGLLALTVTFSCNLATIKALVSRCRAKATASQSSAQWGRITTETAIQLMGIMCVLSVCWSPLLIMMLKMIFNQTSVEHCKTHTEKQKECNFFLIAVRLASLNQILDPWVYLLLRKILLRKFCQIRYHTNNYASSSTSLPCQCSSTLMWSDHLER

[2] = target: Prostaglandin E2 receptor EP4 subtype (Homo sapiens, UniProt P35408); assay: Antagonistic activity at Prostanoid EP4 receptor in human was determined; format: functional
[3] = target: T2, Prostaglandin E2 receptor EP1 subtype (Homo sapiens, UniProt P34995); assay: Antagonistic activity at Prostanoid EP1 receptor in human was determined; format: functional
T2 sequence (P34995 whole entry): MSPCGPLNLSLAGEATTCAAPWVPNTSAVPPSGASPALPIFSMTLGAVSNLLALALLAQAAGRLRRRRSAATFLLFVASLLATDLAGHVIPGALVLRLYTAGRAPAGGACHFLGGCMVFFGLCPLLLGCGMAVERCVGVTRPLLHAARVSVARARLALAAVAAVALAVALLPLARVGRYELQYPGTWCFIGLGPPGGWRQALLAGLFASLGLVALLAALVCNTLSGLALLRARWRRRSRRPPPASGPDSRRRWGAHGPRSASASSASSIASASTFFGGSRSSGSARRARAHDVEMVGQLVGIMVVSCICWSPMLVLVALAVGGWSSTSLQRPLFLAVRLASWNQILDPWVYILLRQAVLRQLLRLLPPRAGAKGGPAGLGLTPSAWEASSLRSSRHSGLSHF

[4] = target: T3, Prostaglandin E2 receptor EP3 subtype (Homo sapiens, UniProt P43115); assay: Antagonistic activity at Prostanoid EP3 receptor in human was determined; format: functional
T3 sequence (P43115 whole entry): T1 sequence (whole entry)

[5] = target: Prostaglandin F2-alpha receptor (Homo sapiens, UniProt P43088); assay: Antagonistic activity at Prostanoid FP receptor in human was determined; format: functional
Thromboxane A2 receptor = target: T4, Thromboxane A2 receptor (Homo sapiens, UniProt P21731); assay: Antagonistic activity at Thromboxane A2 receptor in human was determined; format: functional
T4 sequence (P21731 whole entry): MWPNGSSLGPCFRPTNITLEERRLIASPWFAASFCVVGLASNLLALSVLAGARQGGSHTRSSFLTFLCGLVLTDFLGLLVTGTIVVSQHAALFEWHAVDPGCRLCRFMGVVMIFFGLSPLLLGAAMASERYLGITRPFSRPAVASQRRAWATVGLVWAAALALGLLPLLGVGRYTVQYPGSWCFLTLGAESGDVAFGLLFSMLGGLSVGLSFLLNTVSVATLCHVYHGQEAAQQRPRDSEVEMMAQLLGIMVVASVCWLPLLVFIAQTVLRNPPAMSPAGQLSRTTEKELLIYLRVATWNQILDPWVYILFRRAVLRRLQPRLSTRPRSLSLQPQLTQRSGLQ

Prostacyclin receptor = Prostacyclin receptor (Homo sapiens, UniProt P43119); assay: Antagonistic activity at Prostanoid IP receptor in human was determined; format: functional
[6] = target: T5, Prostaglandin D2 receptor (Homo sapiens, UniProt Q13258); assay: Antagonistic activity at Prostanoid DP receptor in human was determined; format: functional
T5 sequence (Q13258 whole entry): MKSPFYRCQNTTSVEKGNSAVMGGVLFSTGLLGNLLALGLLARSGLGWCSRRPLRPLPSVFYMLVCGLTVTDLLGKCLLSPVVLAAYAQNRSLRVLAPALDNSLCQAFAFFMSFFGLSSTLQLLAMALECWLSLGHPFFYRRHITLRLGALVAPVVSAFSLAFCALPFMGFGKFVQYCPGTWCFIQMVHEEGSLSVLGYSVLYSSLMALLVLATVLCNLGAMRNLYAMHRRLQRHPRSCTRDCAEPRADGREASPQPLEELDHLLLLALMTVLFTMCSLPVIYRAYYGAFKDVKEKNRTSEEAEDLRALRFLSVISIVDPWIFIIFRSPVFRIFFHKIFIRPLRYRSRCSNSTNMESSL

[7] = target: Prostaglandin E2 receptor EP2 subtype (Homo sapiens, UniProt P43116); assay: Antagonistic activity at Prostanoid EP2 receptor in human was determined; format: functional
Prostaglandin E2 receptor EP2 subtype, sequence (P43116 whole entry): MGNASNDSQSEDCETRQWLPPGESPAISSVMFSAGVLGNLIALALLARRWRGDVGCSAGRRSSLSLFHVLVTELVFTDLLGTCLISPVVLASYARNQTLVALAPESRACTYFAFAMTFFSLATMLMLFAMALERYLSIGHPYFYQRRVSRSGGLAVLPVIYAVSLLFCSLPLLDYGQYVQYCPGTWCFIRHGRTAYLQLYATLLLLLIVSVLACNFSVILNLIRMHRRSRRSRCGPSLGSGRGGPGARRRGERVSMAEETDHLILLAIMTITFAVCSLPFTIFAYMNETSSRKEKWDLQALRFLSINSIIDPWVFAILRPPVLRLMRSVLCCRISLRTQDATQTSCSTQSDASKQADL

Prostaglandin E2 receptor EP4 subtype, sequence (P35408 whole entry): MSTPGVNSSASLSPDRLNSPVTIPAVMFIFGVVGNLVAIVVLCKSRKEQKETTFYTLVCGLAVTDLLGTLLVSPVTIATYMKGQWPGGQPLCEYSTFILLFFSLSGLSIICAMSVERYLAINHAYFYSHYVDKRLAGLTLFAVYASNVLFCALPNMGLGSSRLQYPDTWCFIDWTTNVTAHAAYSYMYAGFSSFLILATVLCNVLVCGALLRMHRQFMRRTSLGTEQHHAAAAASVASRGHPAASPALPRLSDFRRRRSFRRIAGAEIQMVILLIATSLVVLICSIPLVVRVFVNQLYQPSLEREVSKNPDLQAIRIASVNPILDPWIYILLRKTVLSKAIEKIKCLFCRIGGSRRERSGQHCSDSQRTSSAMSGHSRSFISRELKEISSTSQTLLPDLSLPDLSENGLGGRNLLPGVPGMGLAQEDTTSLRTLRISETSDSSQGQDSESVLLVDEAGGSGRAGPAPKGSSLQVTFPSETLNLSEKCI
Prostaglandin F2-alpha receptor, sequence (P43088 whole entry): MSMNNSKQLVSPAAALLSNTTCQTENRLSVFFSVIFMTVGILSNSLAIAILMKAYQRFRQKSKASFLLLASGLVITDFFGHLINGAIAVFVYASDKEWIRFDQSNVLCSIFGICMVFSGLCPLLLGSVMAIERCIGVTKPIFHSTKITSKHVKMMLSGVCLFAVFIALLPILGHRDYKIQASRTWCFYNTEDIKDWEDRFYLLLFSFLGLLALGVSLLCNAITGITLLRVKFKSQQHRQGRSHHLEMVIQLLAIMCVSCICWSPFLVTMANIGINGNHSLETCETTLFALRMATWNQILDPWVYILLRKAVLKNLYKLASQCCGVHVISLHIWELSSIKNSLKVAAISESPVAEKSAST
Prostacyclin receptor, sequence (P43119 whole entry): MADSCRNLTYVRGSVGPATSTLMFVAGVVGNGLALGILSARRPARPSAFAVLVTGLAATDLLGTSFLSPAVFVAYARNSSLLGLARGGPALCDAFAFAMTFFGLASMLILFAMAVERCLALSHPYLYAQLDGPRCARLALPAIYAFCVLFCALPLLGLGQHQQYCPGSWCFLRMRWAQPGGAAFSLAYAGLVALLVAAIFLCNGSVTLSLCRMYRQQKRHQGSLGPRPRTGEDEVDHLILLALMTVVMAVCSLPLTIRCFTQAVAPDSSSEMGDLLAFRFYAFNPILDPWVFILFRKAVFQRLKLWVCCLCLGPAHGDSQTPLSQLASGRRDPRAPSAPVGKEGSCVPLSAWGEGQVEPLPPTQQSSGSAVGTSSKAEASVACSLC

SMILES: OB(O)c1ccsc1
Residual binding [1]: 77%

SMILES: O=C(O)/C=C/c1ccccc1Cc1ccc(Cl)c(Cl)c1
Ki [2]: 10 µM
Ki [3]: 63 µM
Ki [4]: 0.032 µM
Ki [5]: 41 µM
Ki (Thromboxane A2 receptor): 0.9 µM
Ki (Prostacyclin receptor): 37 µM
Ki [6]: 2.4 µM
Ki [7]: 13 µM

SMILES: OB(O)c1ccccc1C(F)(F)F
Residual binding [1]: 89%

SMILES: OB(O)c1ccc(Cl)cc1Cl
Residual binding [1]: 25%

SMILES: CSc1ccc(B(O)O)cc1
Residual binding [1]: 27%

SMILES: OCc1cccc(B(O)O)c1
Residual binding [1]: 84%

SMILES: OB(O)c1cccc(Cl)c1
Residual binding [1]: 55%

SMILES: OB(O)c1ccco1
Residual binding [1]: 91%

SMILES: O=C(O)/C=C/c1ccccc1Cc1ccc(Cl)cc1Cl
Ki [2]: > 40 µM
Ki [3]: > 100 µM
Ki [4]: 0.11 µM
Ki [5]: 63 µM
Ki (Thromboxane A2 receptor): 0.52 µM
Ki (Prostacyclin receptor): 31 µM
Ki [6]: 2.5 µM
Ki [7]: 4.1 µM

SMILES: CC(C)(C)NS(=O)(=O)c1ccc(B(O)O)cc1
Residual binding [1]: 100%

Further lines, results first:

Residual binding [1]: 8%
SMILES: OB(O)c1ccc(Cl)c(Cl)c1

Residual binding [1]: 52%
SMILES: OB(O)c1cccc(CSCCc2ccccc2)c1

Residual binding [1]: 61%
SMILES: OB(O)c1cc2ccccc2o1

Residual binding [1]: 5%
SMILES: OB(O)c1ccc2ccccc2c1

Residual binding [1]: 96%
SMILES: CSc1ccccc1B(O)O

Residual binding [1]: 84%
SMILES: COc1ccc(B(O)O)cc1OC

Residual binding [1]: 74%
SMILES: OB(O)c1cccs1

Residual binding [1]: 68%
SMILES: OB(O)c1ccccc1CSCCc1ccccc1

Ki [2]: 3.1 µM
Ki [3]: > 100 µM
Ki [4]: 0.02 µM
Ki [5]: 69 µM
Ki (Thromboxane A2 receptor): 10 µM
Ki (Prostacyclin receptor): > 100 µM
Ki [6]: 0.53 µM
Ki [7]: 12 µM
SMILES: O=C(O)/C=C/c1ccccc1Cc1ccc2ccccc2c1

Ki [2]: > 50 µM
Ki [3]: > 100 µM
Ki [4]: 0.08 µM
Ki [5]: > 83 µM
Ki (Thromboxane A2 receptor): 4.6 µM
Ki (Prostacyclin receptor): > 76 µM
Ki [6]: 4.1 µM
Ki [7]: 43 µM
SMILES: CSc1ccc(Cc2ccccc2/C=C/C(=O)O)cc1

Residual binding [1]: 93%
SMILES: COc1ccccc1B(O)O

Residual binding [1]: 54%
SMILES: OB(O)c1cccc(C(F)(F)F)c1

Residual binding [1]: 48%
SMILES: OB(O)c1cccc2ccccc12
